Results reported in US20060166941A1, “Treatment and/or prevention of non-viral epithelial damage” (Epistem Limited, priority 2003, published 2006).
Several values for one entry are separate records, joined by “and”; a condition that tells them apart may be missing. Identical values can stand only once. Counter-ions that a name gives are not always drawn.

How the values were obtained:
Set-up in all cases: species or system mice
[1] = test system: clonogenic stem cells of the digestive epithelium; assay: In vivo protection of intestinal epithelium clonogenic stem cells, chemotherapy drug damage, independent experiment 2
Method: In Vivo Protection of Intestinal Epithelium Clonogenic Stem Cells—Chemotherapy Drug Damage—Independent Experiment 2.
The data presented in Example 4 were expanded in the following study, in which the ability of foscarnet (phosphonoformic acid trisodium salt hexahydrate) to prevent cytotoxic damage to clonogenic stem cells of the digestive epithelium was investigated using the following experiment.
The model of cytotoxic insult used was treatment with 2 doses of 5-Flurouracil 6 hours apart at 400 mg of 5-Fluorouracil/kilogram bodyweight. Such cytotoxic treatment provides a model of chemotherapy administered to patients undergoing treatment for cancer.
8 experimental groups, each of six mice, were established as set out below:
Group 1: Received intra-peritoneal injection, containing 50 mg foscarnet/kilogram bodyweight, in sterile water, one hour prior to the first cytotoxic treatment. Received one further identical injection on each of the three days following cytotoxic treatment.
Group 2: Received intra-peritoneal injection, containing 50 mg foscarnet/kilogram bodyweight, in sterile water, one hour prior to the first cytotoxic treatment.
Group 3: Received intra-peritoneal injection, containing 50 mg foscarnet/kilogram bodyweight, in sterile water on each of the three days following cytotoxic treatment.
Group 4: Received intra-peritoneal injection, containing 50 mg foscarnet/kilogram bodyweight, in sterile water, 5 minutes prior to the first cytotoxic treatment. Received one further identical injection on each of the three days following cytotoxic treatment.
Group 5: Vehicle control. Received intra-peritoneal injection, of sterile water, one hour prior to the first cytotoxic treatment. Received one further identical injection on each of the days following cytotoxic treatment.
Group 6: Vehicle control. Received intra-peritoneal injection, of sterile water, one hour prior to the first cytotoxic treatment.
Group 7: Vehicle control. Received intra-peritoneal injection, of sterile water, on each of the three days following cytotoxic treatment.
Group 8: Vehicle control. Received intra-peritoneal injection, of sterile water, 5 minutes prior to the first cytotoxic treatment. Received one further identical injection on each of the three days following cytotoxic treatment.
(§1) On the fourth day after treatment the animals of each group were killed, and intestinal tissue harvested for histological analysis. Tissue sections were stained with haemotoxylin and eosin, and were analysed for the presence of regenerating intestinal crypts. Regenerating intestinal crypts are derived from one or more surviving clonogenic stem cells, whereas sterilised crypts (containing no surviving stem cells) disappear within two days of irradiation. The number of regenerating crypts per intestinal circumference was counted, and the mean crypt width measured. Scores for each animal were then corrected to account for the probability of preferentially scoring larger crypts according to the following equation: [formula]
(§2) For each treatment a Protection Factor was calculated using the following equation: corrected crypts/circumference treated corrected crypts/circumference untreated (vehicle)

[2] = test system: clonogenic stem cells of the digestive epithelium; assay: In vivo protection of intestinal epithelium clonogenic stem cells, radiation damage, independent experiment 1 (regenerating crypts); settings: for corrected crypts/circumference / no. crypts/circumference: day 4; for Protection Factor: 13Gy, corrected crypts treated / vehicle
Source text: In Vivo Protection of Intestinal Epithelium Clonogenic Stem Cells—Radiation Damage Independent Experiment 1.
The ability of foscarnet (phosphonoformic acid trisodium salt hexahydrate) to prevent radiological damage to clonogenic stem cells of the digestive epithelium was illustrated by the following experiment.
The model of radiological insult used was treatment with 13 Gy X-ray whole body radiation at a dose rate of 0.7 Gy/minute. Such radiation treatment provides a model of radiotherapy administered to patients undergoing treatment for cancer.
Four experimental groups, each of six mice, were established as set out below:
Group 1: Received intra-peritoneal injection, containing 50 mg foscarnet/kilogram bodyweight, in sterile water, one hour prior to radiation treatment. Received one further identical injection on each of the three days following radiation treatment.
Group 2: Received intra-peritoneal injection, containing 100 mg foscarnet/kilogram bodyweight, in sterile water, one hour prior to radiation treatment. Received one further identical injection on each of the three days following radiation treatment.
Group 3: Vehicle control. Received intra-peritoneal injection, of sterile water, one hour prior to radiation treatment. Received one further identical injection on each of the three days following radiation treatment.
Group 4: Untreated controls. Received neither injections nor exposure to radiation.
as §1, §2

[3] = test system: clonogenic stem cells of the digestive epithelium; assay: In vivo protection of intestinal epithelium clonogenic stem cells, chemotherapy drug (5-Flurouracil) damage
Method: In Vivo Protection of Intestinal Epithelium Clonogenic Stem Cells—Chemotherapy Drug Damage.
The ability of foscarnet (phosphonoformic acid trisodium salt hexahydrate) to prevent cytotoxic damage to clonogenic stem cells of the digestive epithelium was illustrated by the following experiment.
The model of cytotoxic insult used was treatment with 2 doses of 5-Flurouracil 6 hours apart at either 400 mg or 500 mg of 5-Fluorouracil/kilogram bodyweight. Such cytotoxic treatment provides a model of chemotherapy administered to patients undergoing treatment for cancer.
Five experimental groups, each of five mice, were established as set out below:
Group 1: Received intra-peritoneal injection, containing 50 mg foscarnet/kilogram bodyweight, in sterile water, one hour prior to the first cytotoxic treatment (400 mg 5-Flurouracil/kilogram bodyweight). Received one further identical injection on each of the three days following cytotoxic treatment. […]
Group 3: Vehicle control. Received intra-peritoneal injection, of sterile water, one hour prior to both cytotoxic treatments (400 mg 5-Flurouracil/kilogram bodyweight). Received one further identical injection on each of the three days following cytotoxic treatment. […]
as §1, §2

[4] = 400 mg/kg 5FU x 2 6 hours apart plus 50 mg foscarnet/kg -5 minutes, D1, D2, D3, group Ave
[5] = 400 mg/kg 5FU x 2 6 hours apart plus 50 mg foscarnet/kg -5 minutes, D1, D2, D3, individual mice
[6] = 400 mg/kg 5FU x 2 6 hours apart plus 50 mg foscarnet/kg -1 hr only, group Ave
[7] = 400 mg/kg 5FU x 2 6 hours apart plus 50 mg foscarnet/kg -1 hr only, individual mice
[8] = 400 mg/kg 5FU x 2 6 hours apart plus 50 mg foscarnet/kg -1 hr, D1, D2, D3, group Ave
[9] = 400 mg/kg 5FU x 2 6 hours apart plus 50 mg foscarnet/kg -1 hr, D1, D2, D3, individual mice
[10] = 400 mg/kg 5FU x 2 6 hours apart plus 50 mg foscarnet/kg D1, D2, D3, group Ave
[11] = 400 mg/kg 5FU x 2 6 hours apart plus 50 mg foscarnet/kg D1, D2, D3, individual mice
[12] = group 1: 50 mg/kg foscarnet 1 hr prior to first 5-Flurouracil dose (400 mg/kg x 2) and 3 days after
[13] = 13Gy plus 50 mg foscarnet -1 hr, 1, 2, 3 day, group Average
[14] = 13Gy plus 50 mg foscarnet -1 hr, 1, 2, 3 day, individual mice
[15] = 13Gy plus 100 mg foscarnet -1 hr, 1, 2, 3 day, group Average
[16] = 13Gy plus 100 mg foscarnet -1 hr, 1, 2, 3 day, individual mice
[17] = 50 mg foscarnet 1 hr prior to 1st dose of 5-Flurouracil (400 mg/kg x 2 6 hrs apart) and D1, D2, D3, group Average
[18] = 50 mg foscarnet 1 hr prior to 1st dose of 5-Flurouracil (400 mg/kg x 2 6 hrs apart) and D1, D2, D3, individual mice
[19] = 50 mg foscarnet 1 hr prior to both doses of 5-Flurouracil (400 mg/kg x 2 6 hrs apart) and D1, D2, D3, group Average
[20] = 50 mg foscarnet 1 hr prior to both doses of 5-Flurouracil (400 mg/kg x 2 6 hrs apart) and D1, D2, D3, individual mice
[21] = 50 mg foscarnet 1 hr prior to both doses of 5-Flurouracil (500 mg/kg x 2 6 hrs apart) and D1, D2, D3, group Average
[22] = 50 mg foscarnet 1 hr prior to both doses of 5-Flurouracil (500 mg/kg x 2 6 hrs apart) and D1, D2, D3, individual mice

`O=C(O)P(=O)(O)O` [foscarnet, phosphonoformic acid trisodium salt hexahydrate] was tested, and the “Protection Factor” value ([1]; 50 mg foscarnet/kg 5 minutes prior to 1st dose of 5-Flurouracil (400 mg/kg x 2 6 hrs apart) and D1, D2 & D3) was 1.11, the “Protection Factor” value ([1]; 50 mg foscarnet/kg 1 hr prior to 1st dose of 5-Flurouracil (400 mg/kg x 2 6 hrs apart)) was 1.12 and the “Protection Factor” value ([1]; 50 mg foscarnet/kg 1 hr prior to 1st dose of 5-Flurouracil (400 mg/kg x 2 6 hrs apart) and D1, D2 & D3) was 1.62. The “Protection Factor” value ([1]; 50 mg foscarnet/kg D1, D2, D3 following 5-Flurouracil (400 mg/kg x 2 6 hrs apart)) was 1.13, the corrected crypts/circumference [1, 4] was 25.12 and the no. crypts/circumference [1, 4] was 26.97. For the same compound, the corrected crypts/circumference [1, 5] was 13.01 and 39.74 and 38.64 and 15.78 and 24.39 and 19.14, the no. crypts/circumference [1, 5] was 13.20 and 46.50 and 40.10 and 16.30 and 24.30 and 21.40 and the corrected crypts/circumference [1, 6] was 22.70. For the same compound, the no. crypts/circumference [1, 6] was 24.62, the corrected crypts/circumference [1, 7] was 35.09 and 16.52 and 22.90 and 30.41 and 11.28 and 20.01 and the no. crypts/circumference [1, 7] was 42.50 and 16.20 and 24.70 and 32.80 and 11.70 and 19.80. For the same compound, the corrected crypts/circumference [1, 8] was 29.76, the no. crypts/circumference [1, 8] was 31.28 and the corrected crypts/circumference [1, 9] was 42.10 and 17.28 and 33.67 and 29.92 and 31.88 and 23.71. The no. crypts/circumference [1, 9] was 44.90 and 16.00 and 35.70 and 32.50 and 34.30 and 24.30, the corrected crypts/circumference [1, 10] was 19.78 and the no. crypts/circumference [1, 10] was 19.58. The corrected crypts/circumference [1, 11] was 13.74 and 9.34 and 35.87 and 23.12 and 21.45 and 15.14, the no. crypts/circumference [1, 11] was 14.10 and 8.50 and 35.50 and 24.10 and 19.20 and 16.10 and the “numbers of intestinal crypts after exposure to 5-Flurouracil” value ([1]; Groups 1, 2, 3 and 4 (50 mg foscarnet/kg regimens)) was “increased numbers of intestinal crypts”. For the same compound, the “more crypts compared to mice treated with vehicle alone” value (“more crypts compared to mice treated” for short) [1, 12] was about 50%, the “more small intestinal clonogenic stem cells survived” value [1, 12] was “at least 50%” and the corrected crypts/circumference [2, 13] was 3.8. For the same compound, the no. crypts/circumference [2, 13] was 6.8, the corrected crypts/circumference [2, 14] was 2.6 and 6.1 and 3.6 and 4.3 and 2.5 and the no. crypts/circumference [2, 14] was 4.8 and 10.7 and 6.6 and 7.2 and 4.5. The corrected crypts/circumference [2, 15] was 3.2, the no. crypts/circumference [2, 15] was 5.6 and the corrected crypts/circumference [2, 16] was 3.0 and 3.6 and 2.5 and 2.1 and 4.8. For the same compound, the no. crypts/circumference [2, 16] was 5.5 and 6.4 and 4.3 and 3.8 and 8.0, the “Protection Factor” value ([2]; 50 mg foscarnet -1 hr, 1, 2, 3 day) was 1.52 and the “more crypts compared to mice treated” value ([2]; 13 Gy, 50 mg/kg foscarnet) was about 50%. The “more small intestinal clonogenic stem cells survived” value ([2]; 13 Gy, 50 mg/kg foscarnet) was “at least 50%”, the “Protection Factor” value ([2]; 100 mg foscarnet -1 hr, 1, 2, 3 day) was 1.28 and the “numbers of intestinal crypts after exposure to radiation” value ([2]; Groups 1 and 2 (50 mg foscarnet and 100 mg foscarnet), 13 Gy) was “increased numbers of intestinal crypts”. The “Protection Factor” value ([3]; 50 mg foscarnet 1 hr prior to 1st dose of 5-Flurouracil (400 mg/kg x 2 6 hrs apart) and D1, D2 & D3) was 1.87, the corrected crypts/circumference [3, 17] was 20.0 and the no. crypts/circumference [3, 17] was 21.5. The corrected crypts/circumference [3, 18] was 11.0 and 23.2 and 17.2 and 16.5 and 32.1, the no. crypts/circumference [3, 18] was 12.4 and 24.1 and 17.9 (2×) and 35.2 and the “Protection Factor” value ([3]; 50 mg foscarnet 1 hr prior to both doses of 5-Flurouracil (400 mg/kg x 2 6 hrs apart) and D1, D2 & D3) was 1.59. For the same compound, the corrected crypts/circumference [3, 19] was 17.0, the no. crypts/circumference [3, 19] was 18.1 and the corrected crypts/circumference [3, 20] was 14.3 and 16.3 and 20.6 and 11.4 and 22.5. The no. crypts/circumference [3, 20] was 15.9 and 16.8 and 22.8 and 11.4 and 23.4, the “Protection Factor” value ([3]; 50 mg foscarnet 1 hr prior to both doses of 5-Flurouracil (500 mg/kg x 2 6 hrs apart) and D1, D2 & D3) was 1.46 and the corrected crypts/circumference [3, 21] was 10.2. For the same compound, the no. crypts/circumference [3, 21] was 10.5, the corrected crypts/circumference [3, 22] was 8.5 and 13.0 and 16.3 and 5.6 and 7.6 and the no. crypts/circumference [3, 22] was 8.5 and 13.0 and 17.9 and 6.0 and 7.3. For the same compound, the “numbers of intestinal crypts after exposure to 5-Flurouracil” value ([3]; Groups 1, 2 and 4 (50 mg foscarnet/kg regimens)) was “increased numbers of intestinal crypts”, the “more crypts compared to mice treated” value [3, 12] was about 50% and the “more small intestinal clonogenic stem cells survived” value [3, 12] was “at least 50%”.
